Results reported in patent US6441195B1, “Substituted sulphonylamino(thio) carbonyl compounds” (Bayer Aktiengesellschaft, priority 1995, dated 2002).

What was measured:
Format in all cases: in vivo
Poa = test: Pre-emergence test/Greenhouse, Poa; details: after three weeks
Summary of the method: (§1)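 Seeds sown in normal soil were watered about 24 h later with an aqueous emulsion of compound (solvent plus emulsifier), keeping water volume per area constant so dose is set by application rate per unit area. Damage was rated after three weeks as % versus untreated control (0% = no action).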

weeds = test: Pre-emergence test (greenhouse), activity against weeds; details: in words
Summary of the method: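 Compound formulated in acetone with alkylaryl polyglycol ether emulsifier, diluted in water, and watered onto soil about 24 h after sowing, dosed by application rate per unit area. Damage rated after three weeks as % versus untreated control (0% = no action).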

Maize = test: Pre-emergence test/Greenhouse, Maize; details: in vivo
Summary of the method: as §1

Sorghum = test: Pre-emergence test/Greenhouse, Sorghum; details: after three weeks
Summary of the method: as §1

Ambrosia = test: Pre-emergence test/Greenhouse, Ambrosia; details: after three weeks
Summary of the method: as §1

Matricaria = test: Pre-emergence test/Greenhouse, Matricaria; details: after three weeks
Summary of the method: as §1

Soya beans = test: Pre-emergence test/Greenhouse, Soya beans; details: in vivo
Experimental: To produce a suitable preparation of the active compound, 1 part by weight of active compound is mixed with the stated amount of solvent, the stated amount of emulsifier is added and the concentrate is diluted with water to the desired concentration.
Seeds of the test plants are sown in normal soil. After about 24 hours, the soil is watered with the preparation of active compound. Advantageously, the amount of water per unit area is kept constant. The active compound concentration in the preparation is not important, only the active compound appliation rate per unit area matters.
After three weeks, the degree of damage to the plants is rated in % damage in comparison to the development of the untreated control.
0%=no action (like untreated control)

Lolium = test: Pre-emergence test/Greenhouse, Lolium; details: after three weeks
Summary of the method: as §1

Solanum = test: Pre-emergence test/Greenhouse, Solanum; details: after three weeks
Summary of the method: as §1

SMILES | degree of damage to the plants (% damage vs untreated control), Poa (Poa; 60 g of ai./ha) [%] | activity against weeds (weeds) | degree of damage to the plants (% damage vs untreated control), Maize (Maize) [%] | degree of damage to the plants (% damage vs untreated control), Sorghum (Sorghum; 60 g of ai./ha) [%] | degree of damage to the plants (% damage vs untreated control), Ambrosia (Ambrosia; 60 g of ai./ha) [%] | degree of damage to the plants (% damage vs untreated control), Matricaria (Matricaria; 60 g of ai./ha) [%] | degree of damage to the plants (% damage vs untreated control), Soya beans (Soya beans) [%] | degree of damage to the plants (% damage vs untreated control), Lolium (Lolium; 60 g of ai./ha) [%] | degree of damage to the plants (% damage vs untreated control), Solanum (Solanum; 60 g of ai./ha) [%] | degree of damage to the plants (% damage vs untreated control), Poa (Poa; 125 g of ai./ha) [%] | degree of damage to the plants (% damage vs untreated control), Sorghum (Sorghum; 125 g of ai./ha) [%] | degree of damage to the plants (% damage vs untreated control), Ambrosia (Ambrosia; 125 g of ai./ha) [%] | degree of damage to the plants (% damage vs untreated control), Matricaria (Matricaria; 125 g of ai./ha) [%] | degree of damage to the plants (% damage vs untreated control), Solanum (Solanum; 125 g of ai./ha) [%] | degree of damage to the plants (% damage vs untreated control), Lolium (Lolium; 125 g of ai./ha) [%] | other results
CSc1nn(C(=O)NS(=O)(=O)c2c(C)cccc2C(=O)OC(C)C)c(=O)n1C [Example 8] | 90 | very strong activity against weeds | 30 | 80 | 90 | 95 | 0 | 95 | 95 | – | – | – | – | – | – | –
CCOC(=O)c1cccc(C)c1S(=O)(=O)NC(=O)c1noc(C)n1 [Example 10] | – | very strong activity against weeds | 0 | – | – | – | 20 | – | – | – | – | – | – | – | – | degree of damage to the plants (% damage vs untreated control), Poa (Poa; 250 g of ai./ha): 90%; degree of damage to the plants (% damage vs untreated control), Sorghum (Sorghum; 250 g of ai./ha): 70%; degree of damage to the plants (% damage vs untreated control), Ambrosia (Ambrosia; 250 g of ai./ha): 95%; degree of damage to the plants (% damage vs untreated control), Matricaria (Matricaria; 250 g of ai./ha): 95%; degree of damage to the plants (% damage vs untreated control), Lolium (Lolium; 250 g of ai./ha): 80%; degree of damage to the plants (% damage vs untreated control), Solanum (Solanum; 250 g of ai./ha): 95%
COc1nn(C(=O)NS(=O)(=O)c2c(C)cccc2C(=O)OC(C)C)c(=O)n1C [Example 16] | – | very strong activity against weeds | – | – | – | – | 0 | – | – | – | – | – | – | – | – | degree of damage to the plants (% damage vs untreated control), Poa (Poa; 30 g of ai./ha): 95%; degree of damage to the plants (% damage vs untreated control), Sorghum (Sorghum; 30 g of ai./ha): 90%; degree of damage to the plants (% damage vs untreated control), Ambrosia (Ambrosia; 30 g of ai./ha): 95%; degree of damage to the plants (% damage vs untreated control), Matricaria (Matricaria; 30 g of ai./ha): 95%; degree of damage to the plants (% damage vs untreated control), Lolium (Lolium; 30 g of ai./ha): 95%; degree of damage to the plants (% damage vs untreated control), Solanum (Solanum; 30 g of ai./ha): 95%
CCCOc1nn(C(=O)NS(=O)(=O)c2c(C)cccc2C(=O)OC(C)C)c(=O)n1C [Example 17] | – | very strong activity against weeds | – | – | – | – | 0 | – | – | – | – | – | – | – | – | degree of damage to the plants (% damage vs untreated control), Poa (Poa; 30 g of ai./ha): 95%; degree of damage to the plants (% damage vs untreated control), Sorghum (Sorghum; 30 g of ai./ha): 60%; degree of damage to the plants (% damage vs untreated control), Ambrosia (Ambrosia; 30 g of ai./ha): 95%; degree of damage to the plants (% damage vs untreated control), Matricaria (Matricaria; 30 g of ai./ha): 95%; degree of damage to the plants (% damage vs untreated control), Lolium (Lolium; 30 g of ai./ha): 80%; degree of damage to the plants (% damage vs untreated control), Solanum (Solanum; 30 g of ai./ha): 95%
CCCOC(=O)c1cccc(C)c1S(=O)(=O)NC(=O)n1nc(OC(C)C)n(C)c1=O [Example 23] | – | very strong activity against weeds | 0 | – | – | – | 0 | – | – | 80 | 60 | 90 | 95 | 90 | – | –
CCOc1nn(C(=O)NS(=O)(=O)c2c(C)cccc2C(=O)OC(C)C)c(=O)n1CC [Example 43] | 95 | very strong activity against weeds | – | 80 | 95 | 95 | 10 | 95 | 95 | – | – | – | – | – | – | –
COC(=O)c1cccc(OC)c1S(=O)(=O)NC(=O)n1nc(OC(C)C)n(C2CC2)c1=O [Example 135] | – | very strong activity against weeds | – | – | – | – | 40 | – | – | 95 | 90 | 90 | 90 | 95 | 95 | –
COC(=O)c1cccc(C)c1S(=O)(=O)NC(=O)n1nc(OCC(F)(F)F)n(C)c1=O [Example 143] | 90 | very strong activity against weeds | 20 | 90 | 80 | – | 0 | 90 | 90 | – | – | – | – | – | – | –
COC(=O)c1cccc(C)c1S(=O)(=O)NC(=O)n1nc(SCC(F)(F)F)n(C)c1=O [Example 150] | – | very strong activity against weeds | – | – | – | – | 10 | – | – | 90 | 80 | 70 | 80 | 80 | 80 | –
COC(=O)c1cccc(C)c1S(=O)(=O)NC(=O)n1nc(SCCF)n(C)c1=O [Example 152] | – | very strong activity against weeds | – | – | – | – | 20 | – | – | 95 | 95 | 95 | 80 | 95 | 95 | –
CCOn1c(CC)nn(C(=O)NS(=O)(=O)c2c(C)cccc2C(=O)OC)c1=O [Example 155] | 95 | very strong activity against weeds | – | 95 | 90 | 80 | 40 | 95 | 95 | – | – | – | – | – | – | –
COC(=O)c1cccc(C)c1S(=O)(=O)NC(=O)n1nc(OCC2CC2)n(C)c1=O [Example 167] | 95 | very strong activity against weeds | – | 95 | 90 | 95 | 30 | 80 | 90 | – | – | – | – | – | – | –
COC(=O)c1cccc(C)c1S(=O)(=O)NC(=O)n1nc(OCC2CC2)n(C2CC2)c1=O [Example 172] | – | very strong activity against weeds | – | – | – | – | 60 | – | – | 95 | 90 | 90 | 95 | 95 | 90 | –
